From PubChem BioAssay AID248 (DTP/NCI, 2004)
Where “and” joins values, the source holds several entries; their conditions need not be identical. Equal entries are not always repeated. Toxic doses and inconclusive results are not listed. Rule as the data show it: active = T/C of 150% or more; inactive = T/C below 125%.

System: L1210 leukemia ip in BDF1 mice, survival T/C
Experiment: NCI In Vivo Anticancer Drug Screen. Data for tumor model L1210 Leukemia (intraperitoneal) in B6D2F1 (BDF1) mice
Details: endpoint: mean survival time, higher = longer survival
Method in brief: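 Antitumor effect is assessed in tumor-bearing animals. Survival in the compound arm is compared with a vehicle-dosed control arm and expressed as their quotient.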

[1] = dose: 100.0 mg/kg/injection, schedule: Q01DX001 (ip), vehicle: saline
[2] = dose: 100.0 mg/kg/injection, schedule: Q04DX003 (ip), vehicle: saline
[3] = dose: 200.0 mg/kg/injection, schedule: Q01DX001 (ip), vehicle: saline
[4] = dose: 200.0 mg/kg/injection, schedule: Q04DX003 (ip), vehicle: saline
[5] = dose: 100.0 mg/kg/injection, schedule: Q04DX003 (ip), vehicle: saline with Tween-80
[6] = dose: 200.0 mg/kg/injection, schedule: Q04DX003 (ip), vehicle: saline with Tween-80
[7] = dose: 400.0 mg/kg/injection, schedule: Q04DX003 (ip), vehicle: saline with Tween-80
[8] = dose: 400.0 mg/kg/injection, schedule: Q04DX003 (ip), vehicle: saline
[9] = dose: 400.0 mg/kg/injection, schedule: Q01DX001 (ip), vehicle: saline
[10] = dose: 100.0 mg/kg/injection, schedule: Q01DX009 (ip), vehicle: saline

Measured: T/C

CC(C)NCC(O)c1cccc(O)c1 (centres undefined)
inactive: dose: 50.0 mg/kg/injection, schedule: Q04DX003 (ip), vehicle: saline 101 % of control | [1] 98 % of control | [2] 101 % of control | [3] 97 % of control | [4] 104 % of control

CCCCCCCCCCCCCC(CCCCCC)C1CCCCC1 (centres undefined)
inactive: dose: 100.0 mg/kg/injection, schedule: Q01DX001 (ip), vehicle: acetone 100 % of control | dose: 200.0 mg/kg/injection, schedule: Q01DX001 (ip), vehicle: acetone 106 % of control | dose: 400.0 mg/kg/injection, schedule: Q01DX001 (ip), vehicle: acetone 101 % of control

O=C(Nc1ccccc1)C1C2C=CC(CC2)C1C(=O)Nc1ccccc1 (centres undefined)
inactive: [5] 98 % of control | [6] 107 % of control | [7] 98 % of control

CCOC(=O)NC(=O)NC(=O)OCC
inactive: dose: 75.0 mg/kg/injection, schedule: Q01DX009 (ip), vehicle: saline sonified 92 % of control | [2] 107 % of control | dose: 150.0 mg/kg/injection, schedule: Q01DX009 (ip), vehicle: saline sonified 94 % of control | [4] 119 % of control | dose: 300.0 mg/kg/injection, schedule: Q01DX009 (ip), vehicle: saline sonified 96 % of control | [8] 104 % of control

CS/C(=C\C(=O)c1ccccc1)C(=O)O
inactive: dose: 100.0 mg/kg/injection, schedule: Q04DX002 (ip), vehicle: saline 110 % of control | dose: 200.0 mg/kg/injection, schedule: Q04DX002 (ip), vehicle: saline 100 % of control | dose: 400.0 mg/kg/injection, schedule: Q04DX002 (ip), vehicle: saline 100 % of control

O=C(CCl)Nc1cc(Cl)ccc1N1CCCC1
inactive: dose: 12.5 mg/kg/injection, schedule: Q01DX009 (ip), vehicle: acetone 100 % of control | dose: 25.0 mg/kg/injection, schedule: Q01DX009 (ip), vehicle: acetone 90 % of control | dose: 50.0 mg/kg/injection, schedule: Q01DX009 (ip), vehicle: acetone 90 % of control

CC(=O)OCC(=O)C1(O)CCC2C3CCC4CC(OC(C)=O)CCC4(C)C3CC(=O)C21C (centres undefined)
inactive: dose: 100.0 mg/kg/injection, schedule: Q01DX001 (ip), vehicle: other 106 % of control | dose: 200.0 mg/kg/injection, schedule: Q01DX001 (ip), vehicle: other 101 % of control | dose: 400.0 mg/kg/injection, schedule: Q01DX001 (ip), vehicle: other 102 % of control

CC(C)N(C)C(C1=CC(C)(C)c2ccccc2C1=O)c1ccccc1 (centres undefined)
inactive: dose: 100.0 mg/kg/injection, schedule: Q04DX003 (ip), vehicle: Klucel (hydroxypropylcellulose) (HPC) 108 % of control | dose: 200.0 mg/kg/injection, schedule: Q04DX003 (ip), vehicle: Klucel (hydroxypropylcellulose) (HPC) 101 % of control | dose: 400.0 mg/kg/injection, schedule: Q04DX003 (ip), vehicle: Klucel (hydroxypropylcellulose) (HPC) 101 % of control

S=C(Nc1ccccc1)c1ccccc1
inactive: dose: 100.0 mg/kg/injection, schedule: Q04DX002 (ip), vehicle: Klucel (hydroxypropylcellulose) (HPC) 89 % of control | dose: 200.0 mg/kg/injection, schedule: Q04DX002 (ip), vehicle: Klucel (hydroxypropylcellulose) (HPC) 92 % of control | dose: 400.0 mg/kg/injection, schedule: Q04DX002 (ip), vehicle: Klucel (hydroxypropylcellulose) (HPC) 105 % of control

NC(=O)C(c1ccccc1)c1ccccc1
inactive: [5] 93 % of control | [6] 100 % of control | [7] 94 % of control

C#CC(OC(=O)c1cc([N+](=O)[O-])cc([N+](=O)[O-])c1)C1OC(C)(C)OC1C1COC(C)(C)O1 (centres undefined)
inactive: dose: 100.0 mg/kg/injection, schedule: Q01DX001 (ip), vehicle: carboxymethylcellulose (CMC) 106 % of control | dose: 200.0 mg/kg/injection, schedule: Q01DX001 (ip), vehicle: carboxymethylcellulose (CMC) 106 % of control | dose: 400.0 mg/kg/injection, schedule: Q01DX001 (ip), vehicle: carboxymethylcellulose (CMC) 106 % of control

O=c1cc([N+](=O)[O-])n(O)cc1[N+](=O)[O-]
inactive: [1] 102 % of control | [3] 108 % of control | [9] 102 % of control

c1ccc(N/N=C(\Sc2ccccc2)c2ccccc2)cc1
inactive: [5] 113 % of control | [6] 102 % of control | [7] 94 % of control

COc1ccc(C(c2ccc(Cl)cc2)N2CCNCC2)cc1 (centres undefined)
inactive: dose: 25.0 mg/kg/injection, schedule: Q01DX009 (ip), vehicle: saline with Tween-80 98 % of control | dose: 50.0 mg/kg/injection, schedule: Q01DX009 (ip), vehicle: saline with Tween-80 96 % of control | dose: 100.0 mg/kg/injection, schedule: Q01DX009 (ip), vehicle: saline with Tween-80 96 % of control | [5] 102 % of control

CC1OC(OC2CCC3(C)C(CCC4C3CC(O)C3(C)C(C5=CC(=O)OC5)CCC43O)C2)CC(O)C1OC1CC(O)C(OC2CC(O)C(OC3OC(CO)C(O)C(O)C3O)C(C)O2)C(C)O1 (centres undefined)
inactive: dose: 4.0 mg/kg/injection, schedule: Q01DX015 (sc), vehicle: steriod suspending solution 96 % of control | dose: 8.0 mg/kg/injection, schedule: Q01DX015 (sc), vehicle: steriod suspending solution 104 % of control | dose: 16.0 mg/kg/injection, schedule: Q01DX015 (sc), vehicle: steriod suspending solution 102 % of control | dose: 32.0 mg/kg/injection, schedule: Q01DX015 (sc), vehicle: steriod suspending solution 98 % of control | [1] 100 % of control | [3] 101 % of control | [9] 100 % of control

COc1cc2c[n+](C)c3c4cc(OC)c(OC)cc4ccc3c2cc1OC
inactive: dose: 9.6 mg/kg/injection, schedule: Q01DX009 (ip), vehicle: saline with Tween-80 119 % of control | dose: 12.5 mg/kg/injection, schedule: Q01DX009 (ip), vehicle: water 111 % of control | dose: 14.0 mg/kg/injection, schedule: Q01DX009 (ip), vehicle: saline with Tween-80 115 % of control | dose: 25.0 mg/kg/injection, schedule: Q01DX009 (ip), vehicle: water 110 % of control and 122 % of control | dose: 50.0 mg/kg/injection, schedule: Q01DX009 (ip), vehicle: water 109 % of control and 114 % of control | [10] 123 % of control | [2] 100 % of control | dose: 100.0 mg/kg/injection, schedule: Q04DX003 (ip), vehicle: water 112 % of control | dose: 180.0 mg/kg/injection, schedule: Q01DX009 (ip), vehicle: saline 109 % of control | [4] 104 % of control | dose: 200.0 mg/kg/injection, schedule: Q04DX003 (ip), vehicle: water 113 % of control | dose: 240.0 mg/kg/injection, schedule: Q04DX003 (ip), vehicle: water 112 % of control | [8] 110 % of control | dose: 400.0 mg/kg/injection, schedule: Q04DX003 (ip), vehicle: water 107 % of control

O=C1C2CCCC1C(c1ccccc1)C=C2c1ccc(O)cc1 (centres undefined)
inactive: [5] 97 % of control | [6] 96 % of control | [7] 94 % of control

CC(=O)Nc1cc(C)cc(C)n1
inactive: dose: 87.5 mg/kg/injection, schedule: Q01DX009 (ip), vehicle: saline with Tween-80 113 % of control | dose: 175.0 mg/kg/injection, schedule: Q01DX009 (ip), vehicle: saline with Tween-80 102 % of control

NC(=O)n1nccc1N
inactive: [10] 100 % of control | [2] 94 % of control | dose: 200.0 mg/kg/injection, schedule: Q01DX009 (ip), vehicle: saline 103 % of control | [4] 104 % of control | dose: 400.0 mg/kg/injection, schedule: Q01DX009 (ip), vehicle: saline 105 % of control | [8] 91 % of control

C=C1C(=O)N(C)CCC1(O)C(CC)C(=O)OC (centres undefined)
inactive: dose: 6.25 mg/kg/injection, schedule: Q01DX001 (ip), vehicle: saline 98 % of control | dose: 12.5 mg/kg/injection, schedule: Q01DX001 (ip), vehicle: saline 98 % of control | dose: 25.0 mg/kg/injection, schedule: Q01DX001 (ip), vehicle: saline 98 % of control | dose: 50.0 mg/kg/injection, schedule: Q01DX001 (ip), vehicle: saline 98 % of control
